Data on one molecule can be found in publication PMC12615485, “New dengue virus inhibitors targeting NS3-NS5 interaction identified by in silico screening” (Frontiers in Microbiology, 2025).

Each structure is given as a SMILES string. “Also recorded” adds a separate entry of the source. Read-outs that look alike come from different tables or passages of the source. A value given as a limit tells only on which side of the number the result lay.

For one data set, the system named is DENV-2 NGC strain. Briefly: Plaque reduction assay (PRA) in Vero cells. Type of data set: cell-based. As to conditions: for EC50: PRA in Vero cells, read-out: Antiviral activity EC50; for SI (selectivity index): ratio between CC50 and EC50. In general terms: Plaques are areas of infected cells; plaque reduction assays count them against a control.
Data set [1] concerns the target NS5-RdRp (NHS-NS5_270–900) (Dengue virus type 2, UniProt P14340). As to the kind of experiment: Microscale thermophoresis (MST) binding to labeled NS5-RdRp. More on the design: species or system DENV-2. As to conditions: medium MST power, 40% LED power. The source says: (§1) To obtain the purified helicase portion of NS3 (6His-NS3_177–618) and the main protease of SARS-CoV-2 (6His-M^pro) used for the MST analysis, we followed previously described protocols ([Celegato et al., 2023]; [Mercorelli et al., 2022]). The 6His–NS5 RdRp270–900 protein was expressed and purified as described above. For MST studies, 6His-NS5_270–900, 6His-NS3_177–618, and 6His-M^pro were fluorescently labeled using NanoTemper Protein labeling kit RED-NHS 2nd generation (MO-L011, NanoTemper Technologies GmbH, Munich, Germany). Protein and dye concentrations were determined by absorption spectroscopy using NanoDrop™ One spectrophotometer (ThermoFisher Scientific), considering, at 280 nm, ε = 171,350 M^–1cm^1 for recombinant NS5, ε = 66,140 M^–1cm^1 for NS3, ε = 32,890 M^–1cm^1 for M^pro, respectively. The ε = 195,000 M^1cm^1 at 650 nm was considered for the RED-NHS fluorophore, with a correction factor of 0.04. The degree of labeling (DOL) was calculated according to the manufacturer’s instructions, yielding a value of 0.63 for NHS-NS5, 0.98 for NHS-NS3, and 0.60 for NHS-M^pro, respectively. […] In all experiments, signal quality was monitored by the Monolith device to detect possible ligand auto-fluorescence, aggregation, or target protein adsorption to capillaries. Experiments were performed in triplicates and analyzed with the MO. […]

The test system of another data set is Vero cells. Briefly: MTT cytotoxicity assay. As to conditions: read-out: Cytotoxicity CC50; best analogues of hit 3, in-house synthesized hit 3 as control; MTT in Vero cells at 72 h. In general terms: Tetrazolium assays rely on reduction of a dye to a coloured formazan, in cell work by metabolically active cells.
The next data set in a line: MTT cytotoxicity assay. As to conditions: African green monkey, Vero cells.
The next data set deals with SARS-CoV-2 M^pro (Severe acute respiratory syndrome coronavirus 2, UniProt P0DTD1). As to conditions: MST binding check, up to 125 μM compound concentration.
Data set [2] has as its target NS3-hel (NHS-NS3_177–618) (Dengue virus type 2, UniProt P14340). Briefly: Microscale thermophoresis (MST) binding to labeled NS3-hel. More on the design: species or system DENV-2. As to conditions: same test concentrations (serial dilutions from 250 μM), 60% LED power.
From the text: as §1
(Microscale thermophoresis detects binding through changes in fluorescence in a small temperature gradient.)

In data set [3] the target is NS3-NS5 interaction (NS3 f.l. binding to coated 6His-NS5_270–900) (Dengue virus type 2, UniProt P14340). Briefly: ELISA-based NS3-NS5 interaction assay. More on the design: species or system DENV-2. As to conditions: for IC50: read-out: In vitro activity IC50. Here is the method:
Nunc Maxisorp microplates (Thermo Fisher Scientific) were coated with 400 ng/well of 6His-NS5_270–900, or GST protein as a control, in PBS for 3 h at 37 °C and then blocked with 5% (wt/v) bovine serum albumin (BSA, Merck Life Science) in PBS overnight at 4 °C. Blocked wells were incubated at room temperature (RT) for 2 h with increasing amounts of NS3 f.l. or GST–NS3_172–618. 6His-NS5_270–900-coated plates were also incubated with increasing concentration of GST, as a control. After washing with PBS containing 0.3% Tween 20 (Fisher Scientific, Waltham, MA, United States), the NS3-NS5 interaction was detected by incubating the plates with the anti-NS3 monoclonal antibody (GT2811 clone, Genetex, Irvine, CA, United States) diluted 1:6,000 in PBS + 2% (v/v) FBS (Thermo Fisher Scientific) for 1 h at RT. The unbound primary antibody was removed by further washes with PBS + 0.3% Tween 20 and the secondary goat anti-mouse HRP-conjugated antibody (GenScript Biotech) at a dilution of 1:8,000 in PBS + 2% FBS was then added. After incubation for 1 h at RT and following washes, the colorimetric substrate 3,3′,5,5′-tetramethylbenzidine (TMB, SeraCare Life Sciences, Milford, MA, United States) was added to each well and absorbance was read at 450 nm by an ELISA plate reader (Tecan Infinite 200 PRO, Mannedorf, Switzerland).
To test the inhibitory effect of compounds on NS3-NS5 interaction, 6His-NS5_270–900-coated wells were incubated with a fixed amount of NS3 f.l. (200 ng) along with increasing concentrations of test compounds or DMSO as a control. To exclude non-specific inhibition of compounds due to colloidal aggregation, the inhibitory activities of compounds were tested in the presence or the absence of 0.002% Triton X-100 (Fisher Scientific), a condition which reverses and prevents the colloidal formation of organic molecules ([McGovern et al., 2003]). All the compound concentrations were tested at least in duplicate.

The test system of a further data set is DENV-3 (H-87 strain). Briefly: Viral RNA reduction assay (RT-qPCR) in Vero cells. Type of data set: cell-based. As to conditions: DENV-3, Vero cells, RT-qPCR at 72 h p.i. As for the experimental part:
(§2) For viral RNA reduction assays with DENV serotypes 1 to 4, Vero cells were seeded at a density of 1 × 10^5 cells per well in 24-well plates. The next day, cells were infected at 37 °C with the different viruses in serum-free DMEM at the multiplicity of infection (MOI) of 0.001 and plates were rocked every 15 min. At the end of incubation, the viral inoculum was removed, and medium with 2% FBS containing various concentrations of test compounds was added. Viral RNA was isolated from the culture supernatant at 72 h p.i., using the PureLink Viral RNA/DNA Mini kit (Invitrogen, Waltham, MA, United States), according to the manufacturer’s instructions. Viral RNA was quantified using the One-Step RT-PCR kit Dengue Virus subtypes 1, 2, 3 and 4 PCRmax (Cole Parmer Instrument, Saint Neots, United Kingdom), according to the manufacturer’s instructions, on a 7,000 Real-time PCR platform (Applied Biosystems, Waltham, MA, United States).

Another data set concerns DENV-2 (NGC strain). Briefly: Viral RNA reduction assay (RT-qPCR) in Vero cells. As to conditions: DENV-2, Vero cells, RT-qPCR at 72 h p.i. It is filed as cell-based. As for the experimental part: as §2
The next data set deals with DENV-4 (H-241 strain). As to the kind of experiment: Viral RNA reduction assay (RT-qPCR) in Vero cells. Type of data set: cell-based. As to conditions: DENV-4, Vero cells, RT-qPCR at 72 h p.i. Here is the method: as §2
In a further data set the test system is DENV-1 (TH-Sman strain). Briefly: Viral RNA reduction assay (RT-qPCR) in Vero cells. Type of data set: cell-based. As to conditions: DENV-1, Vero cells, RT-qPCR at 72 h p.i. Here is the method:
as §2

As for `Cc1ccc(NC(=S)NNC(=O)c2ccccc2O)cc1` [Hit 3], the concentration for a half-maximal effect (EC50) in the data set with DENV-2 NGC strain (Dengue virus, DENV2, Vero, best analogues of hit 3, in-house synthesized hit 3 as control, NGC strain) is 1.8 ± 0.6 µM; in the data set on DENV-2 NGC strain (Dengue virus, DENV2, Vero, selected hits, 50% inhibition of viral plaque formation, DENV-2), 1.93 µM; in the data set with DENV-2 NGC strain (selected hits, 50% inhibition of viral plaque formation, DENV-2), 1.9 ± 0.3 µM. The “SI (selectivity index)” value with DENV-2 NGC strain (best analogues of hit 3) and in the data set on DENV-2 NGC strain (selected hits) was greater than 130 in each case. For the same molecule, the Kd in [1] turned out to be 28.8 ± 4.5 µM. Moreover, the CC50 in the data set with Vero cells is greater than 250 µM. In “MTT cytotoxicity assay”, this molecule showed a CC50 at 72 h greater than 250 µM. The “binding to SARS-CoV-2 M^pro” value at SARS-CoV-2 M^pro is on record as “No binding was detected”. Moreover, the “binding to NS3-hel” value in data set [2] was “not able to detect the binding; also recorded: no binding was observed”. For the same molecule, the IC50 in data set [3] (analogues of hit 3, in-house synthesized hit 3 as control, 50% inhibition of NS3-NS5 binding in ELISA) stood at 19.4 ± 7.8 µM; in data set [3] (selected hits, concentration that decreased the NS3-NS5 binding by 50% in ELISA), 15.6 ± 4.5 µM. The molecule further came in with an inhibition at 100 µM in data set [3] (fixed concentration of 100 μM, compared with DMSO control) of no less than 50%. In addition, the “viral RNA synthesis” value in the data set on DENV-3 (H-87 strain), in the data set on DENV-2 (NGC strain), in the data set on DENV-4 (H-241 strain) and in the data set with DENV-1 (TH-Sman strain) was “concentration-dependent reduction in viral RNA synthesis” in each case.

For orientation: EC50 means the midpoint of the concentration-response curve. A word on the Kd: it is the equilibrium constant for the complex coming apart. Read a high Kd as weaker binding. As usually defined, the CC50 is the concentration giving 50% cytotoxicity. The IC50 is the concentration needed to halve the response being measured. Usually inhibition stands for the share of the control response that was lost under treatment.
